From US7517884B2 (Kalypsys Inc., priority 1998, dated 2009)

What was measured:
Assay type in all cases: cell-based, murine and human
Details in all cases: GAL4-PPAR LBD chimera
[1] = biological target: T1, PPAR-delta (UniProt Q03181); assay: PPAR-delta transactivation assay (GAL4 chimera, luciferase reporter) in CV-1 cells
T1 sequence (Q03181 1-441): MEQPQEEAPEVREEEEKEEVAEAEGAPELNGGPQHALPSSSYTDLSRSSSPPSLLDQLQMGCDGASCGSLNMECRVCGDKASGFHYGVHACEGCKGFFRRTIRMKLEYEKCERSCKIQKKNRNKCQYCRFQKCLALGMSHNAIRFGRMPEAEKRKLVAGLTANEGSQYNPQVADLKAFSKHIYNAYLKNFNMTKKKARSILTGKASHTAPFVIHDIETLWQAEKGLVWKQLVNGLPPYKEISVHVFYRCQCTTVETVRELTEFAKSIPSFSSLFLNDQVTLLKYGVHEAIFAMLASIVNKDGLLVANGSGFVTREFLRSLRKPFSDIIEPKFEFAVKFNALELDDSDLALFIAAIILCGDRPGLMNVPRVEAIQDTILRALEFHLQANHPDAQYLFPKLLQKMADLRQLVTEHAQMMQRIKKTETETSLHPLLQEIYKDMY
Summary of the method: (§1)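 CV-1 cells transiently transfected with murine or human PPAR-alpha, -gamma or -delta ligand-binding domain fused to GAL4 DNA-binding domain plus a GAL4-site luciferase reporter. After replating in phenol-red-free DME with 5% delipidated calf serum, cells were exposed to compound 20-24 h; luciferase read-out gave EC50.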

[2] = biological target: T2, PPAR-alpha (UniProt Q07869); assay: PPAR-alpha transactivation assay (GAL4 chimera, luciferase reporter) in CV-1 cells
T2 sequence (Q07869 1-468): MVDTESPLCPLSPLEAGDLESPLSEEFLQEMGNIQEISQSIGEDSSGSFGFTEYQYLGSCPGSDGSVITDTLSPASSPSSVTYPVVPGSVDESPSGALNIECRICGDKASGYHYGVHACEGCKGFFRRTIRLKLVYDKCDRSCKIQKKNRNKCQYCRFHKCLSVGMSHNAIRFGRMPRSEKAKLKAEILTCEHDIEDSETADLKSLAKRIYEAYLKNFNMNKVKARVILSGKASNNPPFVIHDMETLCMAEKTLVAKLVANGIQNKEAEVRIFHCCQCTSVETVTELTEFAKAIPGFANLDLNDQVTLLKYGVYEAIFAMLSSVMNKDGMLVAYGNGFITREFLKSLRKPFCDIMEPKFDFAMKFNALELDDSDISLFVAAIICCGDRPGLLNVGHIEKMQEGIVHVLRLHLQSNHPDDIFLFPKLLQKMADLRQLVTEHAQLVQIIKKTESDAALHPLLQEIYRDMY
Summary of the method: as §1

[3] = biological target: T3, PPAR-gamma (UniProt P37231); assay: PPAR-gamma transactivation assay (GAL4 chimera, luciferase reporter) in CV-1 cells
T3 sequence (P37231 1-505): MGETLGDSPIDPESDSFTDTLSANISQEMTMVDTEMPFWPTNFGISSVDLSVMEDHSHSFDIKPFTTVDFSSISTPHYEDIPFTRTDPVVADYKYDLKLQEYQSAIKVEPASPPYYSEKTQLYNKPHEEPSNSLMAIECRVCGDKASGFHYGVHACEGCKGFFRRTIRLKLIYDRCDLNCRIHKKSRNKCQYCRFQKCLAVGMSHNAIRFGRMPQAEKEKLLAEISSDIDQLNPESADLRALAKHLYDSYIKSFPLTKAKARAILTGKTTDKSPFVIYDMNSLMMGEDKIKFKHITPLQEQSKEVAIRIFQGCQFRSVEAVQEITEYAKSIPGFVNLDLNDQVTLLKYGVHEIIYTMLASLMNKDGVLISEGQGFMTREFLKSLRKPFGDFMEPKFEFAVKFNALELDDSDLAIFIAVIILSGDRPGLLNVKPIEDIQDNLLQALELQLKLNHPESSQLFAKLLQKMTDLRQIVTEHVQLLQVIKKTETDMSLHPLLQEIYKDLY
Summary of the method: as §1

| EC50 [1] [µM] | EC50 [2] [µM] | EC50 [3] [µM] | SMILES |
| --- | --- | --- | --- |
| < 5 | 5 to 100 | 5 to 100 | C[C@@H]1CN(c2ccc(SC(F)(F)F)cc2)C[C@H](C)N1S(=O)(=O)c1cccc2c1CC(C(=O)O)C2 (stereo partly drawn) [Example 101, 4-[cis-2,6-dimethyl-4-(4-trifluoromethylsulfanyl-phenyl)-piperazine-1-sulfonyl]-indan-2-carboxylic acid] |
| < 5 | < 5 | < 5 | O=C(O)C1Cc2cccc(S(=O)(=O)N3CCN(c4ccc(OC(F)(F)F)cc4)CC3)c2C1 (stereo not drawn) [Example 102, 4-[4-(-trifluoromethoxy-phenyl)-piperazine-1-sulfonyl]-indan-2-carboxylic acid] |
| < 5 | 5 to 100 | 5 to 100 | C[C@@H]1CN(c2ccc(Cl)cc2Cl)C[C@H](C)N1S(=O)(=O)c1ccc2c(c1)C(C(=O)O)CC2 (stereo partly drawn) [Example 103, 6-[4-(2,4-dichloro-phenyl)-cis-2,6-dimethyl-piperazine-1-sulfonyl]-indan-1-carboxylic acid] |
| < 5 | < 5 | 5 to 100 | C[C@@H]1CN(c2ccc(C(F)(F)F)cc2)C[C@H](C)N1S(=O)(=O)c1ccc2c(c1)C(C(=O)O)CC2 (stereo partly drawn) [Example 104, 6-[cis-2,6-dimethyl-4-(4-trifluoromethyl-phenyl)-piperazine-1-sulfonyl]-indan-1-carboxylic acid] |
| < 5 | 5 to 100 | 5 to 100 | C[C@@H]1CN(c2ccc(C(F)(F)F)cc2)C[C@H](C)N1S(=O)(=O)c1cccc2c1CC(C(=O)O)C2 (stereo partly drawn) [Example 105, 4-[cis-2,6-Dimethyl-4-(4-trifluoromethyl-phenyl)-piperazine-1-sulfonyl]-indan-2-carboxylic acid] |
| < 5 | 5 to 100 | 5 to 100 | C[C@@H]1CN(c2ccc(C(C)(C)C)cc2)C[C@H](C)N1S(=O)(=O)c1cccc2c1CC(C(=O)O)C2 (stereo partly drawn) [Example 106, 4-[4-(4-tert-butyl-phenyl)-cis-2,6-dimethyl-piperazine-1-sulfonyl]-indan-2-carboxylic acid] |
| < 5 | > 100 | > 100 | C[C@@H]1CN(c2cc(Cl)c(C(F)(F)F)cn2)C[C@H](C)N1S(=O)(=O)c1cccc2c1CC(C(=O)O)C2 (stereo partly drawn) [Example 107, 4-[4-(4-Chloro-5-trifluoromethyl-pyridin-2-yl)-cis-2,6-dimethylpiperazine-1-sulfonyl]-indan-2-carboxylic acid] |
| < 5 | 5 to 100 | 5 to 100 | C[C@@H]1CN(c2ccc(OC(F)(F)F)cc2)C[C@H](C)N1S(=O)(=O)c1cccc2c1CC(C(N)=O)C2 (stereo partly drawn) [Example 108, 4-[cis-2,6-dimethyl-4-(4-trifluoromethoxy-phenyl)-piperazine-1-sulfonyl]-indan-2-carboxylic acid amide] |
| < 5 | > 100 | 5 to 100 | C[C@@H]1CN(c2ccc(OC(F)(F)F)cc2)C[C@H](C)N1S(=O)(=O)c1cccc2c1CC(c1nnn[nH]1)C2 (stereo partly drawn) [Example 109, cis-2,6-dimethyl-1-[2-(1H-tetrazol-5-yl)-indane-4-sulfonyl]-4-(4-trifluoromethoxy-phenyl)-piperazine] |
| < 5 | > 100 | 5 to 100 | C[C@@H]1CN(Cc2ccc(OC(F)(F)F)cc2)C[C@H](C)N1S(=O)(=O)c1ccc2scc(CC(=O)O)c2c1 [Example 110, {5-[cis-2,6-dimethyl-4-(4-trifluoromethoxy-benzyl)-piperazine-1-sulfonyl]-benzo[b]thiophen-3-yl}-acetic acid] |
| < 5 | > 100 | 5 to 100 | C[C@@H]1CN(Cc2ccc(Cl)c(Cl)c2)C[C@H](C)N1S(=O)(=O)c1cccc2c1CC(C(=O)O)C2 (stereo partly drawn) [Example 111] |
| 5 to 100 | 5 to 100 | 5 to 100 | O=C(O)C1Cc2cccc(S(=O)(=O)N3CCN(c4cccc(OCC(F)(F)F)c4)CC3)c2C1 (stereo not drawn) [Example 112, 4-{4-[3-(2,2,2-trifluoro-ethoxy)-phenyl]-piperazine-1-sulfonyl}-indan-2-carboxylic acid] |
| < 5 | 5 to 100 | 5 to 100 | O=C(O)C1Cc2cccc(S(=O)(=O)N3CCN(c4cccc(OC(F)(F)F)c4)CC3)c2C1 (stereo not drawn) [Example 113, 4-[4-(3-Trifluomethoxy-phenyl)-piperazine-1-sulfonyl]-indan-2-carboxylic acid] |
| 5 to 100 | 5 to 100 | 5 to 100 | O=C(O)C1Cc2cccc(S(=O)(=O)N3CCN(c4ccc(OCC(F)(F)F)cc4)CC3)c2C1 (stereo not drawn) [Example 114, 4-{4-[4-(2,2,2-Trifluoro-ethoxy)-phenyl]-piperazine-1-sulfonyl}-indan-2-carboxylic acid] |
| < 5 | > 100 | 5 to 100 | C[C@@H]1CN(c2cccc(OC(F)(F)F)c2)C[C@H](C)N1S(=O)(=O)c1cccc2c1CC(C(=O)O)C2 (stereo partly drawn) [Example 115, 4-[cis-2,6-dimethyl-4-(3-trifluoromethoxyphenyl)piperazin-1-ylsulfonyl]-2,3-dihydro-1H-indene-2-carboxylic acid] |
| < 5 | 5 to 100 | 5 to 100 | C[C@H]1CN(S(=O)(=O)c2cccc3c2CC(C(=O)O)C3)[C@@H](C)CN1c1ccc(C(F)(F)F)cn1 (stereo partly drawn) [Example 116, 4-[2S,5S-dimethyl-4-(5-trifluoromethyl-pyridin-2-yl)-piperazine-1-sulfonyl]-indan-2(R,S)-carboxylic acid] |
| < 5 | 5 to 100 | 5 to 100 | O=C(O)C1Cc2cccc(S(=O)(=O)N3C4CCCC3CN(c3ccc(OC(F)(F)F)cc3)C4)c2C1 (stereo not drawn) [Example 117, 4-[3-(4-trifluoromethoxy-phenyl)-3,9-diaza-bicyclo[3.3.1]nonane-9-sulfonyl]-indan-2-carboxylic acid] |
| < 5 | > 100 | > 100 | C[C@@H]1CN(c2ccc(Cl)c(Br)c2)C[C@H](C)N1S(=O)(=O)c1cccc2c1CC(C(=O)O)C2 (stereo partly drawn) [Example 120, 4-(4-(3-bromo-4-chlorophenyl)-cis-2,6-dimethylpiperazin-1-ylsulfonyl)-2,3-dihydro-1H-indene-2-carboxylic acid] |
| < 5 | 5 to 100 | > 100 | C[C@@H]1CN(c2cc(F)c(C(F)(F)F)c(F)c2)C[C@H](C)N1S(=O)(=O)c1cccc2c1CC(C(=O)O)C2 (stereo partly drawn) [Example 121, 4-(4-(3,5-Difluoro-4-(trifluoromethyl)phenyl)-cis-2,6-dimethylsulfonyl)-2,3-dihydro-1H-indene-2-carboxylic acid] |
| < 5 | > 100 | > 100 | C[C@@H]1CN(c2ccc(C(F)(F)F)c(Br)c2)C[C@H](C)N1S(=O)(=O)c1cccc2c1CC(C(=O)O)C2 (stereo partly drawn) [Example 122, 4-(4-(3-Bromo-4-(trifluoromethyl)phenyl)-cis-2,6-dimethylpiperazin-1-ylsulfonyl)-2,3-dihydro-1H-indene-2-carboxylic acid] |
| 5 to 100 | > 100 | > 100 | C[C@@H]1CN(c2cc(F)cc(F)c2Cl)C[C@H](C)N1S(=O)(=O)c1cccc2c1CC(C(=O)O)C2 (stereo partly drawn) [Example 123, 4-(4-(2-Chloro-3,5-difluorophenyl)-cis-2,6-dimethylpiperazin-1-ylsulfonyl)-2,3-dihydro-1H-indene-2-carboxylic acid] |
| < 5 | > 100 | > 100 | C[C@@H]1CN(c2cc(F)c(Cl)c(F)c2)C[C@H](C)N1S(=O)(=O)c1cccc2c1CC(C(=O)O)C2 (stereo partly drawn) [Example 124, 4-(4-(4-Chloro-3,5-difluorophenyl)-cis-2,6-dimethylpiperazin-1-ylsulfonyl)-2,3-dihydro-1H-indene-2-carboxylic acid] |
